According to patent US11136301B2, “Broad spectrum antiviral compounds and uses thereof” (The Regents Of The University Of California, priority 2015, dated 2021):
Like-named read-outs stand apart in the source and are kept apart here.

System: wild-type HIV-1 (HIV-1LAI) in H9 cells (non-permissive)
Experiment: microbe, parasite or virus in culture
Assay type: cell-based
[1] = Human immunodeficiency virus 1, H9, read-out: Antiviral activity (IC50 μM) H9 cells, Table 5, wild-type HIV-1, non-permissive H9 cells
[2] = Human immunodeficiency virus 1, H9, read-out: Antiviral activity (IC50 μM) H9 cells, Table 8, wild-type HIV-1, non-permissive H9 cells
[3] = Human immunodeficiency virus 1, H9, read-out: Antiviral activity (IC50 μM) H9 cells, wild-type HIV-1 (HIV-1LAI), H9 cells (non-permissive), RT activity in culture supernatants, compounds 1 to 50 μM
[4] = read-out: Antiviral activity (IC50 μM) H9, Table 2, wild-type HIV-1, non-permissive H9 cells
[5] = read-out: Antiviral activity (IC50 μM) H9 cells, Table 5, wild-type HIV-1, non-permissive H9 cells
[6] = read-out: Antiviral activity (IC50 μM) H9 cells, Table 8, wild-type HIV-1, non-permissive H9 cells
[7] = read-out: Antiviral activity (IC50 μM) H9 cells, wild-type HIV-1 (HIV-1LAI), H9 cells (non-permissive), RT activity in culture supernatants, compounds 1 to 50 μM
[8] = Human immunodeficiency virus 1, H9, read-out: Antiviral activity (IC50 μM) H9 Cells, Table 4, wild-type HIV-1, non-permissive H9 cells
[9] = Human immunodeficiency virus 1, H9, read-out: Antiviral activity (IC50 μM) H9 Cells, Table 7, wild-type HIV-1, non-permissive H9 cells

Structure (SMILES): COc1ccc(Sc2ccccc2-c2cn(-c3ccccc3OC)nn2)cc1 [Compound 2cx, 1-(2-Methoxyphenyl)-4-(2-((4-methoxyphenyl)thio)phenyl)-1H-1,2,3-triazole]
- IC50 [1]: 13.6 µM
- IC50 [2]: 13.6 µM
- IC50 [3]: 13.6 µM

Structure (SMILES): COc1ccccc1-n1cc(-c2ccccc2Sc2ccc(C(=O)O)cc2)nn1 [Compound 2gx, 2-Hydroxy-N,N,N-trimethylethanaminium 4-((2-(1-(2-methoxyphenyl)-1H-1,2,3-triazol-4-yl)phenyl)thio)benzoate]
- IC50 [4]: > 50 µM
- IC50 [5]: > 50 µM
- IC50 [6]: > 50 µM
- IC50 [7]: > 50 µM

Structure (SMILES): COc1ccc(Sc2ccccc2-c2cn(-c3cccc(OC)c3OC)nn2)cc1 [Compound 3cx, 1-(2,3-Dimethoxyphenyl)-4-(2-((4-methoxyphenyl)thio)phenyl)-1H-1,2,3-triazole]
- IC50 [8]: 4.7 µM
- IC50 [9]: 4.7 µM
- IC50 [1]: 4.7 µM
- IC50 [2]: 4.7 µM
- IC50 [3]: 4.7 µM

Structure (SMILES): COc1cccc(-n2cc(-c3ccccc3Sc3ccc(N)cc3)nn2)c1OC [Compound 3ex, 4-((2-(1-(2,3-Dimethoxyphenyl)-1H-1,2,3-triazol-4-yl)phenyl)thio)aniline]
- IC50 [1]: 5 µM
- IC50 [2]: 5 µM
- IC50 [3]: 5 µM

Structure (SMILES): COc1cccc(-n2cc(-c3ccccc3Sc3ccc(C(=O)O)cc3)nn2)c1OC [Compound 3gx, 2-Hydroxy-N,N,N-trimethylethanaminium 4-((2-(1-(2,3-dimethoxyphenyl)-1H-1,2,3-triazol-4-yl)phenyl)thio)benzoate]
- IC50 [4]: 4.3 µM
- IC50 (read-out: Antiviral activity (IC50 μM) H9 Cells, Table 4, wild-type HIV-1, non-permissive H9 cells): 4.3 µM
- IC50 (read-out: Antiviral activity (IC50 μM) H9 Cells, Table 7, wild-type HIV-1, non-permissive H9 cells): 4.3 µM
- IC50 [5]: 4.3 µM
- IC50 [6]: 4.3 µM
- IC50 [7]: 4.3 µM

Structure (SMILES): COc1cccc(-n2cc(-c3ccccc3S(=O)(=O)c3ccc(C(=O)O)cc3)nn2)c1OC [Compound 3gy, 2-Hydroxy-N,N,N-trimethylethanaminium 4-((2-(1-(2,3-dimethoxyphenyl)-1H-1,2,3-triazol-4-yl)phenyl)sulfonyl)benzoate]
- IC50 [4]: > 50 µM
- IC50 [5]: > 50 µM
- IC50 [6]: > 50 µM
- IC50 [7]: > 50 µM

Structure (SMILES): COc1ccc(-n2cc(-c3ccccc3Sc3ccc([N+](=O)[O-])cc3)nn2)c(OC)c1 [Compound 4ax, 1-(2,4-Dimethoxyphenyl)-4-(2-((4-nitrophenyl)thio)phenyl)-1H-1,2,3-triazole]
- IC50 [1]: > 50 µM
- IC50 [2]: > 50 µM
- IC50 [3]: > 50 µM

Structure (SMILES): COC(=O)c1ccc(S(=O)(=O)c2ccccc2-c2cn(-c3ccc(OC)cc3OC)nn2)cc1 [Compound 4by, Methyl 4-((2-(1-(2,4-dimethoxyphenyl)-1H-1,2,3-triazol-4-yl)phenyl)sulfonyl)benzoate]
- IC50 [1]: 7.6 µM
- IC50 [2]: 7.6 µM
- IC50 [3]: 7.6 µM

Structure (SMILES): COc1ccc(Sc2ccccc2-c2cn(-c3ccc(OC)cc3OC)nn2)cc1 [Compound 4cx, 1-(2,4-Dimethoxyphenyl)-4-(2-((4-methoxyphenyl)thio)phenyl)-1H-1,2,3-triazole]
- IC50 [1]: > 50 µM
- IC50 [2]: > 50 µM
- IC50 [3]: > 50 µM

Structure (SMILES): COc1ccc(-n2cc(-c3ccccc3Sc3ccc(C(F)(F)F)cc3)nn2)c(OC)c1 [Compound 4dx, 1-(2,4-Dimethoxyphenyl)-4-(2-((4-(trifluoromethyl)phenyl)thio)phenyl)-1H-1,2,3-triazole]
- IC50 [1]: 1.1 µM
- IC50 [2]: 1.1 µM
- IC50 [3]: 1.1 µM

Structure (SMILES): COc1ccc(-n2cc(-c3ccccc3Sc3ccc(N)cc3)nn2)c(OC)c1 [Compound 4ex, 4-((2-(1-(2,4-Dimethoxyphenyl)-1H-1,2,3-triazol-4-yl)phenyl)thio)aniline]
- IC50 [1]: > 50 µM
- IC50 [2]: > 50 µM
- IC50 [3]: > 50 µM

Structure (SMILES): COc1ccc(-n2cc(-c3ccccc3S(=O)(=O)c3ccc(N)cc3)nn2)c(OC)c1 [Compound 4ey, 4-((2-(1-(2,4-Dimethoxyphenyl)-1H-1,2,3-triazol-4-yl)phenyl)sulfonyl)aniline]
- IC50 [1]: > 50 µM
- IC50 [2]: > 50 µM
- IC50 [3]: > 50 µM

Structure (SMILES): COc1ccc(-n2cc(-c3ccccc3S(=O)(=O)c3ccc(C(=O)O)cc3)nn2)c(OC)c1 [Compound 4fy, 4-((2-(1-(2,4-Dimethoxyphenyl)-1H-1,2,3-triazol-4-yl)phenyl)sulfonyl)benzoic Acid]
- IC50 [1]: > 50 µM
- IC50 [2]: > 50 µM
- IC50 [3]: > 50 µM

Structure (SMILES): COc1ccc(-n2cc(-c3ccccc3Sc3ccc(C(=O)O)cc3)nn2)c(OC)c1 [Compound 4gx, 2-Hydroxy-N,N,N-trimethylethanaminium 4-((2-(1-(2,4-dimethoxyphenyl)-1H-1,2,3-triazol-4-yl)phenyl)thio)benzoate]
- IC50 [5]: > 50 µM
- IC50 [6]: > 50 µM
- IC50 [7]: > 50 µM

Structure (SMILES): COc1ccc(OC)c(-n2cc(-c3ccccc3S(=O)(=O)c3ccc(C(F)(F)F)cc3)nn2)c1 [Compound 5dy, 1-(2,5-Dimethoxyphenyl)-4-(2-((4-(trifluoromethyl)phenyl)sulfonyl)phenyl)-1H-1,2,3-triazole]
- IC50 [1]: 4.3 µM
- IC50 [2]: 4.3 µM
- IC50 [3]: 4.3 µM

Structure (SMILES): COc1ccc(OC)c(-n2cc(-c3ccccc3Sc3ccc(C(=O)O)cc3)nn2)c1 [Compound 5gx, 2-Hydroxy-N,N,N-trimethylethanaminium 4-((2-(1-(2,5-dimethoxyphenyl)-1H-1,2,3-triazol-4-yl)phenyl)thio)benzoate]
- IC50 [5]: > 50 µM
- IC50 [6]: > 50 µM
- IC50 [7]: > 50 µM

Structure (SMILES): COc1cccc(OC)c1-n1cc(-c2ccccc2Sc2ccc([N+](=O)[O-])cc2)nn1 [Compound 6ax, 1-(2,6-Dimethoxyphenyl)-4-(2-((4-nitrophenyl)thio)phenyl)-1H-1,2,3-triazole]
- IC50 [1]: 6.3 µM
- IC50 [2]: 6.3 µM
- IC50 [3]: 6.3 µM

Structure (SMILES): COc1ccc(Sc2ccccc2-c2cn(-c3c(OC)cccc3OC)nn2)cc1 [Compound 6cx, 1-(2,6-Dimethoxyphenyl)-4-(2-((4-methoxyphenyl)thio)phenyl)-1H-1,2,3-triazole]
- IC50 [1]: > 50 µM
- IC50 [2]: > 50 µM
- IC50 [3]: > 50 µM

Structure (SMILES): COc1cccc(OC)c1-n1cc(-c2ccccc2Sc2ccc(C(F)(F)F)cc2)nn1 [Compound 6dx, 1-(2,6-Dimethoxyphenyl)-4-(2-((4-(trifluoromethyl)phenyl)thio)phenyl)-1H-1,2,3-triazole]
- IC50 [1]: 5.3 µM
- IC50 [2]: 5.3 µM
- IC50 [3]: 5.3 µM

Structure (SMILES): COc1cccc(OC)c1-n1cc(-c2ccccc2S(=O)(=O)c2ccc(C(F)(F)F)cc2)nn1 [Compound 6dy, 1-(2,6-Dimethoxyphenyl)-4-(2-((4-(trifluoromethyl)phenyl)sulfonyl)phenyl)-1H-1,2,3-triazole]
- IC50 [1]: > 50 µM
- IC50 [2]: > 50 µM
- IC50 [3]: > 50 µM

Structure (SMILES): COc1cccc(OC)c1-n1cc(-c2ccccc2Sc2ccc(N)cc2)nn1 [Compound 6ex, 4-((2-(1-(2,6-Dimethoxyphenyl)-1H-1,2,3-triazol-4-yl)phenyl)thio)amine]
- IC50 [8]: 1.5 µM
- IC50 [9]: 1.5 µM
- IC50 [1]: 1.5 µM
- IC50 [2]: 1.5 µM
- IC50 [3]: 1.5 µM
- IC50 (Human immunodeficiency virus 1, H9, read-out: IC50, anti-HIV-1 activity, non-permissive H9 cells): 1 to 3 µM

Structure (SMILES): COc1cccc(OC)c1-n1cc(-c2ccccc2Sc2ccc(C(=O)O)cc2)nn1 [Compound 6gx, 2-Hydroxy-N,N,N-trimethylethanaminium 4-((2-(1-(2,6-dimethoxyphenyl)-1H-1,2,3-triazol-4-yl)phenyl)thio)benzoate]
- IC50 [4]: 52 µM
- IC50 [5]: 52 µM
- IC50 [6]: 52 µM
- IC50 [7]: 52 µM
